What was measured:
green foxtail [1] = assay: Test Example 4: herbicidal effect by soil treatment (Table 19, symbol G); assay type: in vivo, green foxtail (Setaria viridis); details: AAH 320 g/ha
Procedure, shortened: (§1)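 In this soil treatment, the formulated compound reached the seeds only through the soil: seeds were buried about 1.5 cm deep in sterilized diluvial soil, then the diluted emulsion was sprayed over the surface. After three weeks at 25° C. to 30° C. in a greenhouse, effects were graded on criteria from an earlier test.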

southern crabgrass [2] = assay: Test Example 5: herbicidal effect by foliage application, plastic box (Table 20, symbol F); assay type: in vivo, southern crabgrass (Digitaria ciliaris); details: foliage application, AAH 320 g/ha, three weeks after application
Procedure, shortened: (§2)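 Plants were sown into sterilized diluvial soil under about 1.5 cm cover and kept in a greenhouse at 25° C. to 30° C. Fourteen days on, foliage received an even spray of the diluted emulsion. Herbicidal or crop effect was judged three weeks afterwards.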

blackgrass [3] = assay: Test Example 4: herbicidal effect by soil treatment (Table 19, symbol J); assay type: in vivo, blackgrass (Alopecurus myosuroides); details: AAH 320 g/ha
Procedure, shortened: as §1

wild oat [4] = assay: Test Example 5: herbicidal effect by foliage application, plastic box (Table 20, symbol I); assay type: in vivo, wild oat (Avena fatua); details: foliage application, AAH 320 g/ha, three weeks after application
Procedure, shortened: as §2

lambsquarters [5] = assay: Test Example 5: herbicidal effect by foliage application, plastic box (Table 20, symbol O); assay type: in vivo, lambsquarters (Chenopodium album); details: foliage application, AAH 320 g/ha, three weeks after application
Procedure, shortened: as §2

redroot pigweed [6] = assay: Test Example 4: herbicidal effect by soil treatment (Table 19, symbol N); assay type: in vivo, redroot pigweed (Amaranthus retroflexus); details: AAH 320 g/ha
Procedure, shortened: as §1

windgrass [7] = assay: Test Example 5: herbicidal effect by foliage application, plastic box (Table 20, symbol L); assay type: in vivo, windgrass (Apera spica-venti); details: foliage application, AAH 320 g/ha, three weeks after application
Procedure, shortened: as §2

barnyard grass [8] = assay: Test Example 4: herbicidal effect by soil treatment (Table 19, symbol H); assay type: in vivo, barnyard grass (Echinochloa crus-galli); details: AAH 320 g/ha
Procedure, shortened: as §1

lambsquarters [9] = assay: Test Example 4: herbicidal effect by soil treatment (Table 19, symbol O); assay type: in vivo, lambsquarters (Chenopodium album); details: AAH 320 g/ha
Procedure, shortened: as §1

persian speedwell [10] = assay: Test Example 4: herbicidal effect by soil treatment (Table 19, symbol R); assay type: in vivo, Persian speedwell (Veronica persica); details: AAH 320 g/ha
Procedure, shortened: as §1

chickweed [11] = assay: Test Example 5: herbicidal effect by foliage application, plastic box (Table 20, symbol P); assay type: in vivo, common chickweed (Stellaria media); details: foliage application, AAH 320 g/ha, three weeks after application
Procedure, shortened: as §2

green foxtail [12] = assay: Test Example 5: herbicidal effect by foliage application, plastic box (Table 20, symbol G); assay type: in vivo, green foxtail (Setaria viridis); details: foliage application, AAH 320 g/ha, three weeks after application
Procedure, shortened: as §2

velvetleaf [13] = assay: Test Example 4: herbicidal effect by soil treatment (Table 19, symbol M); assay type: in vivo, velvetleaf (Abutilon theophrasti); details: AAH 320 g/ha
Procedure, shortened: as §1

wild oat [14] = assay: Test Example 4: herbicidal effect by soil treatment (Table 19, symbol I); assay type: in vivo, wild oat (Avena fatua); details: AAH 320 g/ha
Procedure, shortened: as §1

Italian ryegrass [15] = assay: Test Example 5: herbicidal effect by foliage application, plastic box (Table 20, symbol K); assay type: in vivo, Italian ryegrass (Lolium multiflorum); details: foliage application, AAH 320 g/ha, three weeks after application
Procedure, shortened: as §2

chickweed [16] = assay: Test Example 4: herbicidal effect by soil treatment (Table 19, symbol P); assay type: in vivo, common chickweed (Stellaria media); details: AAH 320 g/ha
Procedure, shortened: as §1

barnyard grass [17] = assay: Test Example 5: herbicidal effect by foliage application, plastic box (Table 20, symbol H); assay type: in vivo, barnyard grass (Echinochloa crus-galli); details: foliage application, AAH 320 g/ha, three weeks after application
Procedure, shortened: as §2

velvetleaf [18] = assay: Test Example 5: herbicidal effect by foliage application, plastic box (Table 20, symbol M); assay type: in vivo, velvetleaf (Abutilon theophrasti); details: foliage application, AAH 320 g/ha, three weeks after application
Procedure, shortened: as §2

persian speedwell [19] = assay: Test Example 5: herbicidal effect by foliage application, plastic box (Table 20, symbol R); assay type: in vivo, Persian speedwell (Veronica persica); details: foliage application, AAH 320 g/ha, three weeks after application
Procedure, shortened: as §2

southern crabgrass [20] = assay: Test Example 4: herbicidal effect by soil treatment (Table 19, symbol F); assay type: in vivo, southern crabgrass (Digitaria ciliaris); details: AAH 320 g/ha
Procedure, shortened: as §1

windgrass [21] = assay: Test Example 4: herbicidal effect by soil treatment (Table 19, symbol L); assay type: in vivo, windgrass (Apera spica-venti); details: AAH 320 g/ha
Procedure, shortened: as §1

blackgrass [22] = assay: Test Example 5: herbicidal effect by foliage application, plastic box (Table 20, symbol J); assay type: in vivo, blackgrass (Alopecurus myosuroides); details: foliage application, AAH 320 g/ha, three weeks after application
Procedure, shortened: as §2

redroot pigweed [23] = assay: Test Example 5: herbicidal effect by foliage application, plastic box (Table 20, symbol N); assay type: in vivo, redroot pigweed (Amaranthus retroflexus); details: foliage application, AAH 320 g/ha, three weeks after application
Procedure, shortened: as §2

Italian ryegrass [24] = assay: Test Example 4: herbicidal effect by soil treatment (Table 19, symbol K); assay type: in vivo, Italian ryegrass (Lolium multiflorum); details: AAH 320 g/ha
Procedure, shortened: as §1

Cc1nn(C)c(=O)c(-c2c(-c3ccc(OS(=O)(=O)C(F)(F)F)cc3)sc3ccccc23)c1O [1-147]
G: green foxtail, herbicidal effect rating (green foxtail [1]): 0 (Herbicidal rate of 5% or less (almost no effect)) | F: southern crabgrass, herbicidal effect (southern crabgrass [2]): 0 (Herbicidal rate of 5% or less (almost no effect)) | J: blackgrass, herbicidal effect rating (blackgrass [3]): 0 (Herbicidal rate of 5% or less (almost no effect)) | I: wild oat, herbicidal effect (wild oat [4]): 0 (Herbicidal rate of 5% or less (almost no effect)) | O: lambsquarters, herbicidal effect (lambsquarters [5]): 2 (Herbicidal rate of 20% or more and less than 40%) | N: redroot pigweed, herbicidal effect rating (redroot pigweed [6]): 2 (Herbicidal rate of 20% or more and less than 40%) | L: windgrass, herbicidal effect (windgrass [7]): 0 (Herbicidal rate of 5% or less (almost no effect)) | H: barnyard grass, herbicidal effect rating (barnyard grass [8]): 0 (Herbicidal rate of 5% or less (almost no effect)) | O: lambsquarters, herbicidal effect rating (lambsquarters [9]): 3 (Herbicidal rate of 40% or more and less than 70%) | R: persian speedwell, herbicidal effect rating (persian speedwell [10]): 5 (Herbicidal rate of 90% or more (almost completely withered)) | P: chickweed, herbicidal effect (chickweed [11]): 5 (Herbicidal rate of 90% or more (almost completely withered)) | G: green foxtail, herbicidal effect (green foxtail [12]): 0 (Herbicidal rate of 5% or less (almost no effect)) | M: velvetleaf, herbicidal effect rating (velvetleaf [13]): 0 (Herbicidal rate of 5% or less (almost no effect)) | I: wild oat, herbicidal effect rating (wild oat [14]): 0 (Herbicidal rate of 5% or less (almost no effect)) | K: Italian ryegrass, herbicidal effect (Italian ryegrass [15]): 0 (Herbicidal rate of 5% or less (almost no effect)) | P: chickweed, herbicidal effect rating (chickweed [16]): 5 (Herbicidal rate of 90% or more (almost completely withered)) | H: barnyard grass, herbicidal effect (barnyard grass [17]): 0 (Herbicidal rate of 5% or less (almost no effect)) | M: velvetleaf, herbicidal effect (velvetleaf [18]): 1 (Herbicidal rate of 5% or more and less than 20%) | R: persian speedwell, herbicidal effect (persian speedwell [19]): 5 (Herbicidal rate of 90% or more (almost completely withered)) | F: southern crabgrass, herbicidal effect rating (southern crabgrass [20]): 0 (Herbicidal rate of 5% or less (almost no effect)) | L: windgrass, herbicidal effect rating (windgrass [21]): 0 (Herbicidal rate of 5% or less (almost no effect)) | J: blackgrass, herbicidal effect (blackgrass [22]): 0 (Herbicidal rate of 5% or less (almost no effect)) | N: redroot pigweed, herbicidal effect (redroot pigweed [23]): 0 (Herbicidal rate of 5% or less (almost no effect)) | K: Italian ryegrass, herbicidal effect rating (Italian ryegrass [24]): 0 (Herbicidal rate of 5% or less (almost no effect))
